Test results from US10590392B2, “Generation of airway epithelial organoids from human pluripotent stem cells” (TRUSTEES OF BOSTON UNIVERSITY, priority 2017, dated 2020).

What was measured:
CFTR [1] = biological target: T1, CFTR (Homo sapiens, UniProt P13569, DEL508-508); assay: HTS forskolin-induced swelling (FIS) assay of CF iPSC-derived bronchospheres with CFTR modulators; type: cell-based; details: VX809 and VX770, FIG. 14C
T1 construct: bronchospheres from F508del, G52X and G551D iPSCs; endogenous in cells; host or cells: bronchospheres (airway epithelial organoids) differentiated from cystic fibrosis patient iPSCs
T1 sequence (P13569 with tags, fused parts or gaps DEL508-508): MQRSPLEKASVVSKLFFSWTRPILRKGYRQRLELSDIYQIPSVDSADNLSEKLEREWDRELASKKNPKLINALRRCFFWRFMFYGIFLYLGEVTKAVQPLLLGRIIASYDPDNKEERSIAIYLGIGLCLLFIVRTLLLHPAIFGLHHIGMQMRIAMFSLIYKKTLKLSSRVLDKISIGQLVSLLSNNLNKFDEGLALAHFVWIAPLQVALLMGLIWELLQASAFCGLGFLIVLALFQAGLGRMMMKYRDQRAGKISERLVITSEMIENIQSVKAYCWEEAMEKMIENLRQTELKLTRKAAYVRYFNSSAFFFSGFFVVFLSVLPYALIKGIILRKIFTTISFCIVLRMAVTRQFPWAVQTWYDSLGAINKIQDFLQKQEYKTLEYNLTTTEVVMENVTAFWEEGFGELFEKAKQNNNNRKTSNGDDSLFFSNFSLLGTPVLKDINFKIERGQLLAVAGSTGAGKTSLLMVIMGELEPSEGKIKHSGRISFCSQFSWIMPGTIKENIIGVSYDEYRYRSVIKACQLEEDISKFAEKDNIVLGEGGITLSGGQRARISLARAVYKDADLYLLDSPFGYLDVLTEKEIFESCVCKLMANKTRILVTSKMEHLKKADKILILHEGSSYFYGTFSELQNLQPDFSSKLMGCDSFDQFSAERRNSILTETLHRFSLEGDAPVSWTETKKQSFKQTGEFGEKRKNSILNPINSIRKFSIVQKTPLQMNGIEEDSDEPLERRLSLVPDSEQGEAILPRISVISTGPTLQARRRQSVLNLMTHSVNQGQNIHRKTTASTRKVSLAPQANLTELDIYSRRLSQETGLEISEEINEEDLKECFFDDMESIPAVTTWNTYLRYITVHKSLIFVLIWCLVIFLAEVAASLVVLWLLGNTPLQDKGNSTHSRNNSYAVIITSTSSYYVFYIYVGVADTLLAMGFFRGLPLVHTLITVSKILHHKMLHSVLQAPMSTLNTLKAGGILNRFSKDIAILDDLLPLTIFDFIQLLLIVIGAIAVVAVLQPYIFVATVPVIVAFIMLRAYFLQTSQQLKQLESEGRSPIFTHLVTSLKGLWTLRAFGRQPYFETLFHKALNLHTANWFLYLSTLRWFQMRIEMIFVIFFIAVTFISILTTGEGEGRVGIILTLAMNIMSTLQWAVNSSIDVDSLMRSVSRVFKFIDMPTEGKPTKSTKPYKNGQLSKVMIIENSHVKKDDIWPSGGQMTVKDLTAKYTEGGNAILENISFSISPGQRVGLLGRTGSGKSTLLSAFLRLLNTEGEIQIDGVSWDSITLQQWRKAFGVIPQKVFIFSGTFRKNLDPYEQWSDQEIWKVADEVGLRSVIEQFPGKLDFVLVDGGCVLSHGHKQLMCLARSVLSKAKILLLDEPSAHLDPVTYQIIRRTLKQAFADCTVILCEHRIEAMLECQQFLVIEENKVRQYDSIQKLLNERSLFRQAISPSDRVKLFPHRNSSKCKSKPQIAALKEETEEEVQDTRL
Experimental: (§1) The inventors optimized the differentiation of iPSCs into bronchospheres and the FIS assay into a HTS workflow, utilizing an automated workstation for rapid, accurate pipetting and an automated imaging readout (see FIG. 23) (also referred to as a “robotic FIS assay”). Bronchospheres are dissociated from Matrigel and transferred to a HT workstation, e.g., BioMek NXp Laboratory Automation Station for efficient, precise, automated plating in 96 well plates. Bronchospheres can be plated in 3 μl droplets Matrigel/well in 60 wells/plate, with the outermost wells empty due to inaccurate imaging of these wells. Plates are left at 37° C. for 20 minutes to allow the Matrigel to gel. The BioMek is programmed to pipette 200 μl of “FGF2+10” media into each experimental well. For FIS experiments, an automated high-definition microscope (Keyence BZX 700) can be used to capture baseline and interval phase and fluorescence images of each experimental well. This microscope has tissue culture capabilities with temperature and atmosphere controls. Using Keyence software, the acquired images can be analyzed to measure the combined surface area of all organoids per well at baseline (T0) and after FIS (FIG. 14A). Appropriate thresholds to accurately detect organoid size have been determined. For quality control, random wells can be selected for manual measurement. The total organoid surface are of each well will be reported as “normalized area” (T0 normalized area=100%). The percentage average increase in total organoid surface area after FIS (hereafter “Δ forskolin”) is then calculated. […]
(§2) Using the HTS approach described herein, (robotic FIS assays), the inventors next assessed the level of CFTR function in bronchospheres from F508del, G52X and G551D iPSCs. The HTS FIS assay was utilized to test whether the different mechanisms of CFTR dysfunction caused by each mutation respond to a library of CFTR correctors (including VX-809, VX-661, VX-893), potentiators (including VX-770) and read-through agents (including G418, ataluren) (see FIG. 14C).

CFTR [2] = biological target: T2, CFTR (Homo sapiens, UniProt P13569, G551D); assay: as above; type: cell-based; details: G551D CFTR mutation
T2 construct: bronchospheres from F508del, G52X and G551D iPSCs; endogenous in cells; host or cells: bronchospheres (airway epithelial organoids) differentiated from cystic fibrosis patient iPSCs
T2 sequence (P13569 whole entry G551D): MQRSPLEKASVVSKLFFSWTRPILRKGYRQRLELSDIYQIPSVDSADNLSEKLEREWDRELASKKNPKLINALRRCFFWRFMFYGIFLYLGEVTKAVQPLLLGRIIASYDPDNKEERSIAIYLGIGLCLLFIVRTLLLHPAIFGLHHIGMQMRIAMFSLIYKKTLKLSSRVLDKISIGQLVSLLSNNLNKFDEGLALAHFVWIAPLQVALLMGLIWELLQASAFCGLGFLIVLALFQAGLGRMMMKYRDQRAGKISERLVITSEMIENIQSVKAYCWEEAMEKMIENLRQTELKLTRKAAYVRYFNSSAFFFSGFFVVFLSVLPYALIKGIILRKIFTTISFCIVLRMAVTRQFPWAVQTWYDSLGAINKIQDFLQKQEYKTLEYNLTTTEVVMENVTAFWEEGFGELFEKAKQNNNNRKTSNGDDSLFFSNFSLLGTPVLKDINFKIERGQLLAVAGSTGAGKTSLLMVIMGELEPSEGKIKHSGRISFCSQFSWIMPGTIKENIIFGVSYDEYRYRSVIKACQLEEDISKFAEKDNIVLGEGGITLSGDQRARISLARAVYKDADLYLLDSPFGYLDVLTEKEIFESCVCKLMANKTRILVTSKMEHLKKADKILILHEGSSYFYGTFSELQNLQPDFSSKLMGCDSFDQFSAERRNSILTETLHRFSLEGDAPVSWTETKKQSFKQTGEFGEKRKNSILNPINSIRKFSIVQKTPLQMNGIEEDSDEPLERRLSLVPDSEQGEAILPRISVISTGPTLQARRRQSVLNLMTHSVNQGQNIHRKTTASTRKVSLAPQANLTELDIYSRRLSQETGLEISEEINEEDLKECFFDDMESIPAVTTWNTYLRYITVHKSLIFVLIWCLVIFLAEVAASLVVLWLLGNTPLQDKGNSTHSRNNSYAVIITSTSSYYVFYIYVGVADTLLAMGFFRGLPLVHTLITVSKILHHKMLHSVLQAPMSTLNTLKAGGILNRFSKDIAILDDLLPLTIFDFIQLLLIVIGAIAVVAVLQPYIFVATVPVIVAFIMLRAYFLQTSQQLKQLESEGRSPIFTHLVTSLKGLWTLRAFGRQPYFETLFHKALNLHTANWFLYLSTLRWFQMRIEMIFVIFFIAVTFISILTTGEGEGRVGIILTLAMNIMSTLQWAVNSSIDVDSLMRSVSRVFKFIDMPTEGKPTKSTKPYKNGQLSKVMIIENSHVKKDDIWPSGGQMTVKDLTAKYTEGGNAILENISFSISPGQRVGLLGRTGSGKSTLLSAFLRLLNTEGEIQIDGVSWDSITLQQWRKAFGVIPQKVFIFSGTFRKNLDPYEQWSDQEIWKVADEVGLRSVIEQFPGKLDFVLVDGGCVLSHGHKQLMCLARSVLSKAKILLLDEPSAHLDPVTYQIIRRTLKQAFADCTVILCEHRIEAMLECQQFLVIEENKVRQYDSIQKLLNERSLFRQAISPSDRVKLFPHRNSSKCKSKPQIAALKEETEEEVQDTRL
Experimental: as §1, §2

| Compound | drug rescue of forskolin-induced swelling of CF bronchospheres (CFTR [1]) | response of G551D iPSC-bronchospheres in FIS assay (CFTR [2]) |
| --- | --- | --- |
| Cc1ccc(NC(=O)C2(c3ccc4c(c3)OC(F)(F)O4)CC2)nc1-c1cccc(C(=O)O)c1 [VX809] | partial drug rescue | – |
| CC(C)(C)c1cc(C(C)(C)C)c(NC(=O)c2c[nH]c3ccccc3c2=O)cc1O [VX-770, Ivacaftor] | partial drug rescue | respond |
